Earlier results as cited in patent publication US5498598A, “Composition for nasal administration of desmopressin” (Ferring AB, priority 1995, dated 1996).

Conditions: in vivo

In the case of `NC(=O)CC[C@@H]1NC(=O)[C@H](Cc2ccccc2)NC(=O)[C@H](Cc2ccc(O)cc2)NC(=O)CCSSC[C@@H](C(=O)N2CCC[C@H]2C(=O)N[C@H](CCCN=C(N)N)C(=O)NCC(N)=O)NC(=O)[C@H](CC(N)=O)NC1=O` [desmopressin, 1-(3-mercaptopropionic acid)-8-D-arginine-vasopressin], the “absorption of a given amount in larger volume versus the same amount in smaller volume” value is listed as “absorbed substantially less effectively”.
